For 1 compound, Time, IC50 and EC50 results are on record in ChEMBL document CHEMBL4371004, “A-C Estrogens as Potent and Selective Estrogen Receptor-Beta Agonists (SERBAs) to Enhance Memory Consolidation under Low-Estrogen Conditions” (J Med Chem, 2018).

Assay [1] concerns Mus musculus. The experiment in a line: Memory enhancement effect in C57BL/6 mouse assessed as time spent with moved object at 10 pg administered as dorsal hippocampal infusion by novel object recognition test. The format is functional.
Assay [2] concerns the target T1, Estrogen receptor (Homo sapiens, UniProt P03372).
T1 sequence (P03372 whole entry): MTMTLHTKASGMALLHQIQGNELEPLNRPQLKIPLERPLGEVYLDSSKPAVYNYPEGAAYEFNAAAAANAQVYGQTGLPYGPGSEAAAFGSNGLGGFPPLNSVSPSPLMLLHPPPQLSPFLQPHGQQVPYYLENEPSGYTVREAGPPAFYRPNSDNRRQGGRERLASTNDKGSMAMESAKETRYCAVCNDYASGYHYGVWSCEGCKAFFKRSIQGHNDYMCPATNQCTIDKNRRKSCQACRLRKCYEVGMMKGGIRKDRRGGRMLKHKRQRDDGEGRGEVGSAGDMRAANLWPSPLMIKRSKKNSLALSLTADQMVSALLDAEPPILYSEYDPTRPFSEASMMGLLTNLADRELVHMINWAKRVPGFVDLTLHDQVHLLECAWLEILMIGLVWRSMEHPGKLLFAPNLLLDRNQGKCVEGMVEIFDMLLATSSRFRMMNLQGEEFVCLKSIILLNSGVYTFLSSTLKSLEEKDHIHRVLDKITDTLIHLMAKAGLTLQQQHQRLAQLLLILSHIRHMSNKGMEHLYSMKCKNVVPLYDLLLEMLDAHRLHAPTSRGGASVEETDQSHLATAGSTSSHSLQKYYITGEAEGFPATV

The target in assay [3] is T1, Estrogen receptor. This is another data set of the same source.

Each structure is given as a SMILES string. pEC50, pIC50: −log10 of the molar value.

For orientation: pIC50 means the negative decadic logarithm of the IC50, by convention in mol/L. A higher pIC50 goes with a small IC50. One may read the pEC50 as the negative decadic logarithm of the EC50, by convention in mol/L. A low value points to a large EC50.

Take `OC[C@H]1CC[C@H](c2ccc(O)cc2)CC1`: the Time in assay [1] turned out to be 1.19 s. Also, the pIC50 in assay [2] is 5.53. The same compound gave a pEC50 in assay [3] of 6.54.
